Source: patent US7078556B2, “Antibiotics Cyan-416 A, Cyan-416 B, Cyan-416 C, Cyan-416 D and Cyan-416 E, and ester derivatives of Cyan-416 B” (Wyeth Holdings Corporation, priority 2002, dated 2006)
Converted amounts (≈) assume the structure as drawn. Like-named read-outs stand apart in the source and are kept apart here.

Key:
Test in all cases: MIC by broth dilution
Format in all cases: cell-based
Candida albicans GC 3066 = settings: GC3066, 18 h
Experimental: (§1) The minimum inhibitory concentration (MIC), the lowest concentration of the antibiotic which inhibits growth of the test organism, is determined by the broth dilution method using Muller-Hinton II […] (Baltimore Biological Laboratories) following the recommendations of the National Committee for Clinical Laboratory Standards [Methods for dilution antimicrobial susceptibility tests for bacteria that grow aerobically. Approved standard M7-A2. National Committee for Clinical Laboratory Standards, Villanova, Pa].
(§2) An inoculum level of 5×10^5 CFU/ml, and a range of antibiotic concentrations (64–0.06 μg/ml) is used. The MIC is determined after the microtiter plates are incubated for 18 hours at 35° C. in an ambient air incubator. The test organisms comprise a spectrum of the Gram-positive bacteria Staphylococcus aureus, Streptococcus pneumoniae, and Enterococcus sp., the Gram-negative bacteria Escherichia coli, and the yeast Candida albicans. These organisms include recent clinical isolates that are resistant to methicillin and vancomycin. MIC data of Cyan-416 A–E are listed in Table 1 and MIC data of ester derivatives of Cyan-416 B (Formula I) are listed in Table 2.

[1] = system: Enterococcus faecalis GC 2242
Experimental: as §1, §2

[2] = system: Enterococcus faecalis GC 4555
Experimental: as §1, §2

[3] = system: Enterococcus faecalis GC 6189; settings: GC6189, Table 2, 18 hours at 35° C.
Experimental: as §1, §2

[4] = system: Enterococcus faecium 4558; settings: Table 2, 18 hours at 35° C.
Experimental: as §1, §2

[5] = system: Enterococcus faecium GC 2243; settings: GC2243, Table 2, 18 hours at 35° C.
Experimental: as §1, §2

[6] = system: Enterococcus faecium GC 4556; settings: GC4556, Table 2, 18 hours at 35° C.
Experimental: as §1, §2

Escherichia coli GC 2203 = settings: GC2203, 18 h
Experimental: as §1, §2

[7] = system: Escherichia coli GC 4560 (imp)
Experimental: as §1, §2

[8] = system: Staphylococcus aureus GC 1131
Experimental: as §1, §2

[9] = system: Staphylococcus aureus GC 2216
Experimental: as §1, §2

[10] = system: Staphylococcus aureus GC 4541; settings: GC4541, Table 2, 18 hours at 35° C.
Experimental: as §1, §2

[11] = system: Staphylococcus aureus GC 4543; settings: GC4543, Table 2, 18 hours at 35° C.
Experimental: as §1, §2

[12] = system: Staphylococcus haemolyticus GC 4547; settings: GC4547, Table 2, 18 hours at 35° C.
Experimental: as §1, §2

[13] = system: Streptococcus pneumoniae GC 1894; settings: GC1894, Table 2, 18 hours at 35° C.
Experimental: as §1, §2

[14] = system: Streptococcus pneumoniae GC 6242; settings: GC6242, Table 2, 18 hours at 35° C.
Experimental: as §1, §2

[15] = system: Enterococcus faecalis GC 842; settings: GC842, Table 1, 18 hours at 35° C.
Experimental: as §1, §2

[16] = system: Staphylococcus aureus GC 4536; settings: GC4536, Table 1, 18 hours at 35° C.
Experimental: as §1, §2

[17] = system: Pseudomonas aeruginosa GC 2214; settings: GC2214, Table 1, 18 hours at 35° C.
[18] = GC2242, Table 2, 18 hours at 35° C., read-out: MIC
[19] = GC4555, Table 2, 18 hours at 35° C., read-out: MIC
[20] = Table 2, Escherichia coli coli GC 2203, 18 hours at 35° C.
[21] = GC1131, Table 2, 18 hours at 35° C., read-out: MIC
[22] = GC2216, Table 2, 18 hours at 35° C., read-out: MIC
[23] = GC2242, Table 1, 18 hours at 35° C., read-out: MIC
[24] = GC4555, Table 1, 18 hours at 35° C., read-out: MIC
[25] = Table 1, Escherichia coli GC 2203, 18 hours at 35° C.
[26] = GC1131, Table 1, 18 hours at 35° C., read-out: MIC
[27] = GC2216, Table 1, 18 hours at 35° C., read-out: MIC

Row | Structure (SMILES) | MIC (Candida albicans GC 3066; Table 2, 18 hours at 35° C.) [µg/mL] | MIC [3] [µg/mL] | MIC [4] [µg/mL] | MIC [5] [µg/mL] | MIC [6] [µg/mL] | MIC (Escherichia coli GC 2203; [20]) [µg/mL] | MIC ([7]; Escherichia coli, 18 h) [µg/mL] | MIC [10] [µg/mL] | MIC [11] [µg/mL] | MIC [12] [µg/mL] | MIC [13] [µg/mL] | MIC [14] [µg/mL] | MIC (Candida albicans GC 3066; Table 1, 18 hours at 35° C.) [µg/mL] | MIC [1, 23] [µg/mL] | MIC [2, 24] [µg/mL] | MIC [15] [µg/mL] | MIC (Escherichia coli GC 2203; [25]) [µg/mL] | MIC [8, 26] [µg/mL] | MIC [9, 27] [µg/mL] | MIC [16] [µg/mL] | also measured
1 | COC(=O)c1c(O)ccc(O)c1C(=O)c1c(O)cc2c(c1O)[C@@H]1C=C[C@]3(C2)C(=C(O)c2c(O)cc(C)cc2[C@@H]3OC(=O)C(C)C)C1=O [Example 7, Cyan-416 B isobutyrate] | > 128 | 4 (≈ 6.22 µM) | 2 (≈ 3.11 µM) | 8 (≈ 12.4 µM) | 4 (≈ 6.22 µM) | > 128 | 8 (≈ 12.4 µM) | 2 (≈ 3.11 µM) | 4 (≈ 6.22 µM) | 4 (≈ 6.22 µM) | 8 (≈ 12.4 µM) | 16 (≈ 24.9 µM) | – | – | – | – | – | – | – | – | MIC [1, 18]: 4 µg/mL (≈ 6.22 µM); MIC [2, 19]: 4 µg/mL (≈ 6.22 µM); MIC [8, 21]: 4 µg/mL (≈ 6.22 µM); MIC [9, 22]: 4 µg/mL (≈ 6.22 µM)
2 | COC(=O)c1c(O)ccc(O)c1C(=O)c1c(O)cc(C)c(Cc2c(C)cc(O)c(C(=O)c3c(O)ccc(O)c3C(=O)OC)c2O)c1O [Example 4b, Cyan-416 E] | – | – | – | – | – | – | 64 (≈ 98.7 µM) | – | – | – | – | – | 64 (≈ 98.7 µM) | 64 (≈ 98.7 µM) | 64 (≈ 98.7 µM) | 64 (≈ 98.7 µM) | > 64 | 64 (≈ 98.7 µM) | 64 (≈ 98.7 µM) | 64 (≈ 98.7 µM) | MIC [17]: 64 µg/mL (≈ 98.7 µM)
3 | COC(=O)c1c(O)ccc(O)c1C(=O)c1c(O)cc2c(c1O)[C@@H]1C=C[C@]3(C2)C(=C(O)c2c(O)cc(C)cc2[C@@H]3OC(C)=O)C1=O [Example 3a, Cyan-416 A] | > 128 | 16 (≈ 26 µM) | 8 (≈ 13 µM) | 8 (≈ 13 µM) | 16 (≈ 26 µM) | > 128 | 32 (≈ 52.1 µM) | 16 (≈ 26 µM) | 8 (≈ 13 µM) | 16 (≈ 26 µM) | 8 (≈ 13 µM) | 8 (≈ 13 µM) | > 64 | 16 (≈ 26 µM) | 16 (≈ 26 µM) | 16 (≈ 26 µM) | > 64 | 8 (≈ 13 µM) | 8 (≈ 13 µM) | 8 (≈ 13 µM) | MIC ([1]; Table 2, 18 hours at 35° C.): 16 µg/mL (≈ 26 µM); MIC ([2]; Table 2, 18 hours at 35° C.): 16 µg/mL (≈ 26 µM); MIC ([7]; Table 2, Escherichia coli GC 4560 (imp), 18 hours at 35° C.): 32 µg/mL (≈ 52.1 µM); MIC ([8]; Table 2, 18 hours at 35° C.): 8 µg/mL (≈ 13 µM); MIC ([9]; Table 2, 18 hours at 35° C.): 8 µg/mL (≈ 13 µM); MIC [17]: > 64 µg/mL
4 | COC(=O)c1c(O)ccc(O)c1C(=O)c1c(O)cc(C)cc1O [Example 4a, Cyan-416 D] | – | – | – | – | – | – | 64 (≈ 201 µM) | – | – | – | – | – | > 64 | 32 (≈ 101 µM) | 64 (≈ 201 µM) | 64 (≈ 201 µM) | > 64 | 64 (≈ 201 µM) | 64 (≈ 201 µM) | 64 (≈ 201 µM) | MIC [17]: > 64 µg/mL
5 | CCCCC(=O)O[C@H]1c2cc(C)cc(O)c2C(O)=C2C(=O)[C@H]3C=C[C@]21Cc1cc(O)c(C(=O)c2c(O)ccc(O)c2C(=O)OC)c(O)c13 [Example 8, Cyan-416 B pentanoate] | > 128 | 4 (≈ 6.09 µM) | 2 (≈ 3.05 µM) | 4 (≈ 6.09 µM) | 4 (≈ 6.09 µM) | > 128 | 8 (≈ 12.2 µM) | 4 (≈ 6.09 µM) | 4 (≈ 6.09 µM) | 4 (≈ 6.09 µM) | 8 (≈ 12.2 µM) | 8 (≈ 12.2 µM) | – | – | – | – | – | – | – | – | MIC [1, 18]: 4 µg/mL (≈ 6.09 µM); MIC [2, 19]: 4 µg/mL (≈ 6.09 µM); MIC [8, 21]: 4 µg/mL (≈ 6.09 µM); MIC [9, 22]: 4 µg/mL (≈ 6.09 µM)
6 | COC(=O)c1c(O)ccc(O)c1C(=O)c1c(O)cc2c(c1O)[C@@H]1C=C[C@@]3(C2)[C@@H](OC(C)=O)c2cc(C)cc(O)c2C(=O)C3(O)C1=O (stereo partly shown) [Example 3c, Cyan-416 C] | – | – | – | – | – | – | > 64 | – | – | – | – | – | > 64 | 32 (≈ 50.7 µM) | 64 (≈ 101 µM) | 32 (≈ 50.7 µM) | > 64 | 32 (≈ 50.7 µM) | 32 (≈ 50.7 µM) | 32 (≈ 50.7 µM) | MIC [17]: > 64 µg/mL
7 | CCCCCC(=O)O[C@H]1c2cc(C)cc(O)c2C(O)=C2C(=O)[C@H]3C=C[C@]21Cc1cc(O)c(C(=O)c2c(O)ccc(O)c2C(=O)OC)c(O)c13 [Example 9, Cyan-416 B hexanoate] | > 128 | 4 (≈ 5.96 µM) | 2 (≈ 2.98 µM) | 4 (≈ 5.96 µM) | 4 (≈ 5.96 µM) | > 128 | 8 (≈ 11.9 µM) | 4 (≈ 5.96 µM) | 4 (≈ 5.96 µM) | 4 (≈ 5.96 µM) | 8 (≈ 11.9 µM) | 8 (≈ 11.9 µM) | – | – | – | – | – | – | – | – | MIC [1, 18]: 4 µg/mL (≈ 5.96 µM); MIC [2, 19]: 4 µg/mL (≈ 5.96 µM); MIC [8, 21]: 4 µg/mL (≈ 5.96 µM); MIC [9, 22]: 4 µg/mL (≈ 5.96 µM)
8 | CCCC(=O)O[C@H]1c2cc(C)cc(O)c2C(O)=C2C(=O)[C@H]3C=C[C@]21Cc1cc(O)c(C(=O)c2c(O)ccc(O)c2C(=O)OC)c(O)c13 [Example 6, Cyan-416 B butyrate] | > 128 | 16 (≈ 24.9 µM) | 8 (≈ 12.4 µM) | 16 (≈ 24.9 µM) | 8 (≈ 12.4 µM) | > 128 | 16 (≈ 24.9 µM) | 8 (≈ 12.4 µM) | 8 (≈ 12.4 µM) | 16 (≈ 24.9 µM) | 16 (≈ 24.9 µM) | 32 (≈ 49.8 µM) | – | – | – | – | – | – | – | – | MIC [1, 18]: 8 µg/mL (≈ 12.4 µM); MIC [2, 19]: 16 µg/mL (≈ 24.9 µM); MIC [8, 21]: 8 µg/mL (≈ 12.4 µM); MIC [9, 22]: 8 µg/mL (≈ 12.4 µM)
9 | COC(=O)c1c(O)ccc(O)c1C(=O)c1c(O)cc2c(c1O)[C@@H]1C=C[C@]3(C2)C(=C(O)c2c(O)cc(C)cc2[C@@H]3O)C1=O [Example 3b, Cyan-416 B] | – | – | – | – | – | – | 64 (≈ 112 µM) | – | – | – | – | – | > 64 | 32 (≈ 55.9 µM) | 64 (≈ 112 µM) | 64 (≈ 112 µM) | > 64 | 32 (≈ 55.9 µM) | 32 (≈ 55.9 µM) | 32 (≈ 55.9 µM) | MIC [17]: > 64 µg/mL
